According to ChEMBL document CHEMBL5465560, “Selectivity Literature for EUbOPEN Chemogenomic Library” (2024):

What was measured:
[1] = target: Ribosomal protein S6 kinase alpha-3 (Homo sapiens, UniProt P51812); assay: Selectivity interaction (ProQinase) EUB0000171b RPS6KA3
[2] = target: Tau-tubulin kinase 1 (Homo sapiens) (UniProt Q5TCY1); assay: Selectivity interaction (ProQinase) EUB0000171b TTBK1
[3] = target: Serine/threonine-protein kinase Nek6 (Homo sapiens) (UniProt Q9HC98); assay: Selectivity interaction (KinomeScan (DiscoverX)) EUB0001079a NEK6; conditions: at 1 µM
[4] = target: Bromodomain adjacent to zinc finger domain protein 1A (Homo sapiens) (UniProt Q9NRL2); assay: Selectivity interaction (Bromodomain panel (DSF asssay)) EUB0000270b BAZ1A
[5] = target: Tyrosine-protein kinase BTK (Homo sapiens, UniProt Q06187); assay: Selectivity interaction (ActivX KiNativ screen (kinase selectivity in THP-1 cell lysates)) EUB0000639a BTK; type: subcellular; conditions: lysate, at 0.01 µM
[6] = Selectivity interaction (KinomeScan (DiscoverX)) EUB0000695a PKNB; conditions: at 100 nM
[7] = target: T1, Testis-specific serine/threonine-protein kinase 3 (Homo sapiens) (UniProt Q96PN8); assay: Selectivity interaction (KinomeScan (DiscoverX)) EUB0000695a TSSK3; conditions: at 100 nM
T1 sequence (whole entry): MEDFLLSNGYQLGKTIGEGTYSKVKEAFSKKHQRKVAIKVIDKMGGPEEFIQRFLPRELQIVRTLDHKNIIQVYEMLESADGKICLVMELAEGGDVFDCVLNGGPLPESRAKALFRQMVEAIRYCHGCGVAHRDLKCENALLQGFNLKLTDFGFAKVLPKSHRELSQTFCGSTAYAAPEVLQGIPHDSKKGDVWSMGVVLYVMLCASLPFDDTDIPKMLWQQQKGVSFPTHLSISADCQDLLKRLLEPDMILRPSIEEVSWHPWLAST

[8] = target: Ribosomal protein S6 kinase alpha-4 (Homo sapiens) (UniProt O75676); assay: Selectivity interaction (KinomeScan (DiscoverX)) EUB0000595a RPS6KA4; conditions: at 10 µM
[9] = target: T2, Dual specificity mitogen-activated protein kinase kinase 5 (Homo sapiens) (UniProt Q13163); assay: Selectivity interaction (KinomeScan (DiscoverX)) EUB0000045b MAP2K5
T2 sequence (whole entry): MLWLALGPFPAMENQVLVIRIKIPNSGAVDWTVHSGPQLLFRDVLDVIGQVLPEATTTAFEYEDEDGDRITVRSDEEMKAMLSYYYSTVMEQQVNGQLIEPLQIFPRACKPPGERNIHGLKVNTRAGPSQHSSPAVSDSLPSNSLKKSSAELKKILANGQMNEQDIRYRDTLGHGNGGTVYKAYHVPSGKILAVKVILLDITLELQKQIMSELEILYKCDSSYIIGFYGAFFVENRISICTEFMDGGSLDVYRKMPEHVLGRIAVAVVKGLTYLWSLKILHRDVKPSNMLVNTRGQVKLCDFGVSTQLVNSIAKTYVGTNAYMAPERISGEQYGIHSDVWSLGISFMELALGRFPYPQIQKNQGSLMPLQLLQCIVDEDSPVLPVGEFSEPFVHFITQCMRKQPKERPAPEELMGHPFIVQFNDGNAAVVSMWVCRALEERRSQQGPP

[10] = target: Casein kinase I isoform epsilon (Homo sapiens, UniProt P49674); assay: Selectivity interaction (KinomeScan (DiscoverX)) EUB0000618a CSNK1E; conditions: at 10 µM
[11] = target: T3, Mitogen-activated protein kinase kinase kinase 3 (Homo sapiens) (UniProt Q99759); assay: Selectivity interaction (ActivX KiNativ screen (ex vivo kinase selectivity in human PBMCs)) EUB0001619a MAP3K3; type: cell-based; conditions: PBMC, at 1 µM
T3 sequence (whole entry): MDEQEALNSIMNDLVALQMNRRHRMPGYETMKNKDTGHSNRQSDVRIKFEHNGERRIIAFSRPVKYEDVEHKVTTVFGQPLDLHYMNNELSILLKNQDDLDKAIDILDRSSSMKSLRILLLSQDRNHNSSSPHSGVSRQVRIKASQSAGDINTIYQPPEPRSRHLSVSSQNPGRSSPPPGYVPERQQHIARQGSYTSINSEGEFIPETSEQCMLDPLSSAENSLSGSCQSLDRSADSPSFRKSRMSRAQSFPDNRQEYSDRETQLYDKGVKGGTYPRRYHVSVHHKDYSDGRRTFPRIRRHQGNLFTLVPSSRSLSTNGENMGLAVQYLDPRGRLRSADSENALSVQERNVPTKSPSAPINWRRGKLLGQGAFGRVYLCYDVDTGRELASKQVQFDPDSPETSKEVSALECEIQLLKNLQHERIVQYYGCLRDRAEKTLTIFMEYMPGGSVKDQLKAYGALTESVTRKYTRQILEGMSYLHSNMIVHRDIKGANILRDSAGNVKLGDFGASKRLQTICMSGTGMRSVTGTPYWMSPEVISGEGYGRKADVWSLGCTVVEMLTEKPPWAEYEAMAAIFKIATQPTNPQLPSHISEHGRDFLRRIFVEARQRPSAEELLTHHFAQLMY

[12] = target: Interleukin-1 receptor-associated kinase 1 (Homo sapiens) (UniProt P51617); assay: Selectivity interaction (ActivX KiNativ screen (ex vivo kinase selectivity in human PBMCs)) EUB0001619a IRAK1; type: cell-based; conditions: PBMC, at 1 µM
[13] = target: Cyclin-dependent kinase 2 (Homo sapiens, UniProt P24941); assay: Selectivity interaction (ActivX KiNativ screen (ex vivo kinase selectivity in human PBMCs)) EUB0001619a CDK2; type: cell-based; conditions: PBMC, at 1 µM

Sequence of Tau-tubulin kinase 1 (Homo sapiens) (Q5TCY1 whole entry): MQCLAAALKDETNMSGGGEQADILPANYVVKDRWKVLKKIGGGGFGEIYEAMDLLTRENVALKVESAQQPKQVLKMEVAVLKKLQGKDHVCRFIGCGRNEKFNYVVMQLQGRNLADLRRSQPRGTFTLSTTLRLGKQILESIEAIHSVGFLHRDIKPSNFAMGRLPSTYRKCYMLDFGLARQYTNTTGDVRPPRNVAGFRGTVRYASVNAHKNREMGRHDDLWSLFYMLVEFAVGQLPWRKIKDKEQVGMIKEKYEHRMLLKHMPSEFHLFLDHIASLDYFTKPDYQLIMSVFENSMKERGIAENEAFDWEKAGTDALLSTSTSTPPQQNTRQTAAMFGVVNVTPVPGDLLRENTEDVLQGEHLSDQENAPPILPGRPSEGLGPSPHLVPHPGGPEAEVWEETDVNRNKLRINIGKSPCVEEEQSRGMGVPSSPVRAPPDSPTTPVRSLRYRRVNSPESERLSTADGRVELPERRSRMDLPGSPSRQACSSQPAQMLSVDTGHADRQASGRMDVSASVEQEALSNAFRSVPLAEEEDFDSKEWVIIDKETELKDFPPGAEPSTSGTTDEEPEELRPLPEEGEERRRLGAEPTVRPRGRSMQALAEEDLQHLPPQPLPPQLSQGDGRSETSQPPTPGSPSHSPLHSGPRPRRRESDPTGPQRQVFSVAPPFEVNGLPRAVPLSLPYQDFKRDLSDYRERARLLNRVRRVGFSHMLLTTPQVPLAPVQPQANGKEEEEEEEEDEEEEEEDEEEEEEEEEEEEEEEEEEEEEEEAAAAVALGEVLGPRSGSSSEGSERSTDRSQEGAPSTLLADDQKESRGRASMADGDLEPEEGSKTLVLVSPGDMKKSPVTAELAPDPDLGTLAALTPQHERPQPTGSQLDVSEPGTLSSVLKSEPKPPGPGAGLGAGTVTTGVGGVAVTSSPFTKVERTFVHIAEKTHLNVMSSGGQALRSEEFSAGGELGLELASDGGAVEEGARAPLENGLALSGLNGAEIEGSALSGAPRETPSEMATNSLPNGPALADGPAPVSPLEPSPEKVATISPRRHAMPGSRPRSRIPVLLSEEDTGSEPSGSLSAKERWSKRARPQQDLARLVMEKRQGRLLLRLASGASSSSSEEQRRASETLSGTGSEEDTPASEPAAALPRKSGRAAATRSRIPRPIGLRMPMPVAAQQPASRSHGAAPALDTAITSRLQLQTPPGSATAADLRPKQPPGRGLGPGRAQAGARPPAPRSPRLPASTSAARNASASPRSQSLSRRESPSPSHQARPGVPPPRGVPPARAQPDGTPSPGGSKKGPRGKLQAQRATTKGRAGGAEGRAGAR
Sequence of Ribosomal protein S6 kinase alpha-3 (P51812 whole entry): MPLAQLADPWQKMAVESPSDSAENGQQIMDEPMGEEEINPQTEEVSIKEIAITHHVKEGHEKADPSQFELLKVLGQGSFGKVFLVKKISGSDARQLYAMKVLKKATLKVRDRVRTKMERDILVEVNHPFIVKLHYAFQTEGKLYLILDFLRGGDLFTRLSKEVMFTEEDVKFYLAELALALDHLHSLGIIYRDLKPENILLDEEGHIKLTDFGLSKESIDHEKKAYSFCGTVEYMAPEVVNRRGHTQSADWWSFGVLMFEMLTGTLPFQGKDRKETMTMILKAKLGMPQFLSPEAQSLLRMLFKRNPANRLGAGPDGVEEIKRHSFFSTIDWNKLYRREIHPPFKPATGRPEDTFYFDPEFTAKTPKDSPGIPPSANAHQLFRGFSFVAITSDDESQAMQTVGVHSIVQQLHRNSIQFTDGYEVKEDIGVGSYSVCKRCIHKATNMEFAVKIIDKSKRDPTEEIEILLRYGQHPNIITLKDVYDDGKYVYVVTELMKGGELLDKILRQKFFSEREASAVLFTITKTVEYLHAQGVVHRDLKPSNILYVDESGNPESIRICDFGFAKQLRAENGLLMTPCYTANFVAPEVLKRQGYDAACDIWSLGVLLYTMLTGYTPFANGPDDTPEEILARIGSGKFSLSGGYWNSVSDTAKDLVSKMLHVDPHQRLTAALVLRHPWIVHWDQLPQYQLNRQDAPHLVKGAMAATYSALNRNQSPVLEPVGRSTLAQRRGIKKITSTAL
Sequence of Serine/threonine-protein kinase Nek6 (Homo sapiens) (Q9HC98 whole entry, the tested form may be a part): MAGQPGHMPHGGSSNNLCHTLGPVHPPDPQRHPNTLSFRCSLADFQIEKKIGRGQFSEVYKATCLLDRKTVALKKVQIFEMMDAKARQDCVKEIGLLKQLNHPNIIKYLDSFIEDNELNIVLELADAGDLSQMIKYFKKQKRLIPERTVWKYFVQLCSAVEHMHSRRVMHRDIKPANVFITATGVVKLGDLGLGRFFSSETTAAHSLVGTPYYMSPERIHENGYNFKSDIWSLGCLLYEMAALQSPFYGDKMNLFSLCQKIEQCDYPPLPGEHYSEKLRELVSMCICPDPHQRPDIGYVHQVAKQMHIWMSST
Sequence of Casein kinase I isoform epsilon (P49674 whole entry, looked up, canonical isoform): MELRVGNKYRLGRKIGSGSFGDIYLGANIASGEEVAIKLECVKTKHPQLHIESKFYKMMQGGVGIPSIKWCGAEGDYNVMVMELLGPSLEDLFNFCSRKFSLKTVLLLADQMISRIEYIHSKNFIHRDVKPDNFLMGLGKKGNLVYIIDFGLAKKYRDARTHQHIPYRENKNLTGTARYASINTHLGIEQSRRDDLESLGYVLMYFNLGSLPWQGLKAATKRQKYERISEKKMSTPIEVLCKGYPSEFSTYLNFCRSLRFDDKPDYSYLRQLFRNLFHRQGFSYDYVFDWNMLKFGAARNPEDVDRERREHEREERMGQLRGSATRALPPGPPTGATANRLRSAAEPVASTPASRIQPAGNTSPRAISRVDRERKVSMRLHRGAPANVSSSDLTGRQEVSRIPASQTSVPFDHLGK
Sequence of Ribosomal protein S6 kinase alpha-4 (Homo sapiens) (O75676 whole entry, looked up): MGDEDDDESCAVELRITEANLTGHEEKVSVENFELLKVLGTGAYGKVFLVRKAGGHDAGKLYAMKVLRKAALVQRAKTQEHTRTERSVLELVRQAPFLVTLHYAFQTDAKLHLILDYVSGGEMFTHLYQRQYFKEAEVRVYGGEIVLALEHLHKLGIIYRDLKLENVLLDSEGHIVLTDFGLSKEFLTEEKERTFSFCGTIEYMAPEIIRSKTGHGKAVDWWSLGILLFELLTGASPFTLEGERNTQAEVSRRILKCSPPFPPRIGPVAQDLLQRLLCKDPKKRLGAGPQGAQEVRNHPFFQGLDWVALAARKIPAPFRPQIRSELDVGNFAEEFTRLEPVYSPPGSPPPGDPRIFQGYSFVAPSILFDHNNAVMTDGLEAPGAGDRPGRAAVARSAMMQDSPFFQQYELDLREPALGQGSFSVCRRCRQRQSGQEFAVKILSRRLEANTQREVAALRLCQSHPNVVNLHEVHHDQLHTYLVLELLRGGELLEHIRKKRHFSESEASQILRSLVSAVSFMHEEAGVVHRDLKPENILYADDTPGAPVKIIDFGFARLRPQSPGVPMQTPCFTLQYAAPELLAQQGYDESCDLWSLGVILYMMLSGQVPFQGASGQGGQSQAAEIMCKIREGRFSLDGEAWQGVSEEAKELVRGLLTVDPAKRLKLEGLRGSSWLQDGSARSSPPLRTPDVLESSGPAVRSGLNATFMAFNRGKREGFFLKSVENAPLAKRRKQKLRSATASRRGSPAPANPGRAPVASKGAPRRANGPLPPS
Sequence of Tyrosine-protein kinase BTK (Q06187 whole entry): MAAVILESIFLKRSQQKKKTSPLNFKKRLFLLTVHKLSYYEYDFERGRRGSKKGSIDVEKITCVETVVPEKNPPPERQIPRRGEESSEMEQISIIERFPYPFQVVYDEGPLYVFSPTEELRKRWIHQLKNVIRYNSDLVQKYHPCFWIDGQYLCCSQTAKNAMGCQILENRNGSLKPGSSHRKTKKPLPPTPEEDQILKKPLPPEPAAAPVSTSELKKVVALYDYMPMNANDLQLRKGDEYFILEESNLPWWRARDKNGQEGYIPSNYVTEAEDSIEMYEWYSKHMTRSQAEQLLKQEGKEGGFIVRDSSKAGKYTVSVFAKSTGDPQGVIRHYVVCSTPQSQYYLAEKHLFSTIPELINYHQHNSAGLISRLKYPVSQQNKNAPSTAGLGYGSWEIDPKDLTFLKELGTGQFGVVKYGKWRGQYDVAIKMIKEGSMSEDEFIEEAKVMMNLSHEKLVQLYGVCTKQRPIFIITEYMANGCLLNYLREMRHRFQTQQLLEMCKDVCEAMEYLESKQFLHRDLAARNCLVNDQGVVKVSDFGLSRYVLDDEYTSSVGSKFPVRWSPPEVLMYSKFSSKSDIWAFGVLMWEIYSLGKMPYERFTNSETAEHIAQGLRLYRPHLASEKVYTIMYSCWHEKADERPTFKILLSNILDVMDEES
Sequence of Interleukin-1 receptor-associated kinase 1 (Homo sapiens) (P51617 whole entry, looked up): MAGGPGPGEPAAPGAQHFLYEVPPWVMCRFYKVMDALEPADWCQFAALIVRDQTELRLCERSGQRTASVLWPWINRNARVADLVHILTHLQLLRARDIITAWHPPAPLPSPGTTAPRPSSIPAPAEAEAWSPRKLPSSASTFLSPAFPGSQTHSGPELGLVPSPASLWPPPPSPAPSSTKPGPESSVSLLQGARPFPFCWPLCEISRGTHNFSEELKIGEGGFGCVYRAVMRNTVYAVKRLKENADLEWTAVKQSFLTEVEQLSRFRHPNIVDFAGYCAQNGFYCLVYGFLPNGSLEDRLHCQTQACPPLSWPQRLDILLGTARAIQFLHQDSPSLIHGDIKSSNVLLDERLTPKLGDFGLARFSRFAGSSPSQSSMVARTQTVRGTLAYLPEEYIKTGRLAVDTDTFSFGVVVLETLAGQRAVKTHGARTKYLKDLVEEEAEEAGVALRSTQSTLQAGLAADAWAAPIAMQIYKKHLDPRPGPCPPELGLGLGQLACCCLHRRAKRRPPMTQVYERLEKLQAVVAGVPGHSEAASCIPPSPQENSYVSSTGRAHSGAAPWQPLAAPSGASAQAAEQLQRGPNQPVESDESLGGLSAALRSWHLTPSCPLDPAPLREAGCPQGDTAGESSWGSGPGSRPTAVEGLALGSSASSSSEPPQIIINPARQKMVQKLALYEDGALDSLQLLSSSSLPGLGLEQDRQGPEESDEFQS

C=CC(=O)Nc1cccc(C(=O)Nc2ccc(Nc3cc(-c4[nH]c(SC)nc4C)ccn3)cc2)c1
% of control ([1]; at 1 µM): 81%
% of control ([1]; at 5 µM): 58%
% of control ([2]; at 1 µM): 102%
% of control ([2]; at 5 µM): 106%

Nc1cnc(N2CCc3cc(S(=O)(=O)Nc4c(F)cc(Cl)cc4F)cc(N4CCCC4=O)c32)nc1 [TP-020n]
% of control [3]: 100%

Cc1cc(CN)cc(C)c1-c1ncn(C)c1-c1cncn1C
dTM [4]: -1.36 K

CC[C@@H]1[C@H](F)C(=O)N[C@@H]1COc1nccc2cc(C(N)=O)c(OC)cc12 [ZIMLOVISERTIB]
% of inhibition [5]: -4.4%

Cc1cc(F)c(C(=O)Nc2cccc(-c3nncn3C(C)C)n2)cc1-n1cnc(C2CC2)c1
% of control [6]: 100%
% of control [7]: 57%

COCC(=O)NC/C=C/c1ccc2ncnc(Nc3ccc(Oc4ccc(C)nc4)c(C)c3)c2c1 [CP-724714]
% of control [8]: 97%

C=CC(=O)Nc1cc(-n2c(=O)ccc3cnc4ccc(-c5ccc(NS(C)(=O)=O)cc5)cc4c32)ccc1C
% of control ([9]; at 1 µM): 100%
% of control ([9]; at 10 µM): 64%

O[C@H]1CC[C@H](Nc2ncc3nc(Nc4c(F)cc(F)cc4F)n([C@H]4CCOC4)c3n2)CC1
% of control [10]: 11%

N#Cc1cccc(-c2c[nH]c3ncnc(N4CCOCC4)c23)c1
% of inhibition [11]: 13%
% of inhibition [12]: 2%
% of inhibition [13]: 9%
